Seven compounds from US7282556B2, “Polynucleotides and polypeptides relating to the modulation of SIRPα-CD47” (Emory University, priority 2001, dated 2007) can be followed below.

≈ marks a conversion by molar mass, not a printed value. Where a SMILES comes first, the peptide text is derived from it. Bridges are numbered along the chain shown (N, C = ends).

In one data set the test system is mAb C5/D5. The data set is described as follows: Peptide competition of phage binding to C5/D5 by ELISA. The note with it: up to 10 mM. The procedure:
To mimic the possible constrained structure in phage, in vitro oxidation was performed after peptide synthesis to introduce disulfide bonds between Cysteine residues in these peptides. […] There are total four tryptophan (W) residues in CD47. W2 is part of the signal peptide and therefore is not present in the mature protein. W58 is present in the N-terminus extracellular IgV-like domain of CD47 and is conserved among many IgV super family members. W136 is also located in the putative extracellular domain whereas W157 is thought to be in a transmembrane region of the protein (Lindberg, et al., J. Cell Biol., 123(2): 485-96, 1993). Amino acids Arginine and Valine (RV/L), present in many selected CL10 and LL9 phages are adjacent in CD47 at amino acid position 132-133, two amino acids upstream from W136. Both amino acids R and V are also found close to W58. Thus, the C5/D5-binding sequence on CD47 is likely to comprise several distant residues brought into proximity by the folding of the protein.
Antibody phage binding assays were performed in microtiter plate wells (Limbro-Titertek, Flow Laboratories) which were coated with relevant antibodies (20 μg/ml) for two hours at room temperature. All subsequent incubations were performed at room temperature. […] Microtiter wells were then analyzed in a microtiter plate reader at 405 nanometers (nm).

Data set [1] can be described thus: Solubility of synthesized peptides in aqueous phase. The class given is physicochemical. To be noted: for solubility: in aqueous phase.
For data set [2], the target named is T1, CD47-SIRPα1 binding (CD47-AP / SIRPα1-GST) (Homo sapiens, UniProt P78324).
T1 construct: Microtiter plates were coated with SIRPα1 extracellular domain fusion protein (SIRPα1-GST, 1 μg/ml) for 2 hr; A construct consisting of the extracellular domain of human CD47 fused to the catalytic domain of human placental AP; made in house
The data set is described as follows: CD47-AP binding to immobilized SIRPα1-GST (alkaline phosphatase activity). To be noted: SIRPα-GST coated 2 μg/ml, CD47-AP 1-2 μg/ml. The procedure:
(§1) FIG. 2C (right panel) is a bar graph that illustrates CD47-AP specifically binds to SIRPα-GST fusion protein but not SIRPβ-GST. In this panel, microtiter plates were coated with either SIRPα-GST or highly similar SIRPβ-GST (10 μg/ml) followed by blocking with BSA. To each well was then added recombinant CD47-AP followed by washing. Bound CD47-AP was then detected by assay for alkaline phosphatase after addition of appropriate substrate.
FIGS. 6A-6C are graphs that illustrate the effects of synthetic peptides on CD47-SIRPα binding. FIG. 6A illustrates the effect of peptide C5/D5.1 on CD47-SIRPα binding. […] After blocking, CD47-AP was added in the absence or presence of synthetic peptides C5/D5.1 and control peptides C5/D5.4, C5/D5.11 and C5/D5.12 (used as 1 mM each). “*” p<0.01. CD47-AP binding was then detected by assay of alkaline phosphatase activity and normalized with respect to binding in the absence of any peptide (CD47-AP only). FIG. 6B illustrates the effect of dose-dependent inhibition of CD47-SIRPα1 binding by peptide C5/D5.1 performed as in FIG. 6A but with increasing concentrations of peptide as indicated. […] Binding of these proteins were detected by a goat anti-GST antibody followed by peroxidase conjugated anti-goat secondary (for detecting SIRPα1-GST) or directly developed for alkaline phosphatase activity (for detecting CD47-AP). […]

The next data set has as its target T2, SIRPβ-GST (Homo sapiens, UniProt O00241).
T2 construct: The extracellular domain of SIRPα1, SIRPβ1 and GST fusion proteins were produced after transfected into 293E cells; made in house; host or cells: 293E cells
Kind of data set: CD47-AP binding to SIRPβ-GST coated wells. To be noted: FIG. 2C. How it is done:
as §1
Since the above results and those of others (Jiang, et al J. Biol. Chem., 274: 559, Seiffert, et al., Blood, 94: 3633, Han, et al., J. Biol. Chem., 275: 37984, Oldenborg, et al., Science, 288: 2051) strongly implicate CD47 as a membrane receptor for SIRPα, experiments were performed to test the direct binding of the IgV loop of CD47 to SIRPα (FIG. 2B). A recombinant CD47 IgV loop fused to alkaline phosphatase (CD47-AP) was constructed as detailed in the methods and expressed in mammalian (CHO) cells in order to allow for proper folding and glycosylation. The expressed CD47-AP fusion protein was then purified by immunoaffinity chromatography using anti CD47 mAb PF3.1-Sepharose. The structure of CD47 IgV domain in the purified CD47-AP was further tested for the ability to react with multiple functionally blocking anti-CD47 extracellular domain-reactive mAbs (Liu, et al., J. Biol. Chem., 276: 40156). […]

T1 sequence (P78324 31-373 limits assumed): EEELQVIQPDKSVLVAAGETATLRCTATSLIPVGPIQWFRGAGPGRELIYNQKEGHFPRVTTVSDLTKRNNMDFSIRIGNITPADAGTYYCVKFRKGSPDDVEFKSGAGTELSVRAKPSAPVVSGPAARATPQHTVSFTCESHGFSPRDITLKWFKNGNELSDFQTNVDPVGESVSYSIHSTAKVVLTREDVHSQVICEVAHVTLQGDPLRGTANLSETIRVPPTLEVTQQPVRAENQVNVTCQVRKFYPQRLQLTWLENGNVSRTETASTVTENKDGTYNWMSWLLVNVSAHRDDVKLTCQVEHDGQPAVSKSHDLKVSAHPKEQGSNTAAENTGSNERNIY
T2 sequence (O00241 30-371 limits assumed): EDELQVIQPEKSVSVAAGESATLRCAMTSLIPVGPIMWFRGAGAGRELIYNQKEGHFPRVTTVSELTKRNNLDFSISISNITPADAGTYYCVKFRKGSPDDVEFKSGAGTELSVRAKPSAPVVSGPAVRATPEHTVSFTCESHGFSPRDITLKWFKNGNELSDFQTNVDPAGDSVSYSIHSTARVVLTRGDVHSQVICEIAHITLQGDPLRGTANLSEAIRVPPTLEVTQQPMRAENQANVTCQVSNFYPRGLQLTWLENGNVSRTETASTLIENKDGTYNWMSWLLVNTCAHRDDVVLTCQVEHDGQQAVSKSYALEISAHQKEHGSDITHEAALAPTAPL

“CRRVIGRVGCGC (listed as Homo sapiens) [C5/D5.3]”: the “inhibitory effect of peptide on phage binding to C5/D5” value with mAb C5/D5 is recorded as “no inhibitory effects”.

Take `CC[C@H](C)[C@@H]1NC(=O)[C@H](C(C)C)NC(=O)CNC(=O)[C@H](CCCNC(=N)N)NC(=O)[C@H](Cc2c[nH]c3ccccc23)NC(=O)[C@H]([C@@H](C)O)NC(=O)[C@H](CCCNC(=N)N)NC(=O)[C@H](C(C)C)NC(=O)CNC(=O)[C@@H](N)CSSC[C@@H](C(=O)O)NC(=O)[C@H](CCC(=O)O)NC1=O` [C5/D5.5, CGVRTWRGVIEC] (H-CGVRTWRGVIEC-OH; disulfide 1-12; N-terminus and C-terminus assumed): in data set [1], the “solubility (in words)” value is “limited solubility” and the solubility (commonly the concentration that dissolves in the medium under given conditions) was 2 mM (≈ 2.75 mg/mL).

`CC[C@H](C)[C@@H]1NC(=O)[C@H](C(C)C)NC(=O)[C@H](CCCNC(=N)N)NC(=O)[C@H](CCC(=O)O)NC(=O)[C@@H](N)CSSC[C@@H](C(=O)O)NC(=O)[C@H](CCCNC(=N)N)NC(=O)[C@H](C(C)C)NC(=O)[C@H](Cc2c[nH]c3ccccc23)NC(=O)CNC(=O)[C@H]([C@@H](C)O)NC(=O)CNC1=O` [C5/D5.1, CERVIGTGWVRC] (H-CERVIGTGWVRC-OH; disulfide 1-12; N-terminus and C-terminus assumed) returned a solubility in data set [1] of 10 mM (≈ 13.8 mg/mL). In other words, the millimolar range.

In the case of “CD47-AP: recombinant CD47 IgV loop fused to alkaline phosphatase”, the “binding of AP fusion protein to SIRPα-GST (AP activity, OD405)” value in data set [2] is “bound”. The “binding of CD47-AP to SIRPβ-GST” value with SIRPβ-GST is “lack of binding”.

`CC[C@H](C)[C@@H]1NC(=O)[C@H](C(C)C)NC(=O)[C@H](CCCNC(=N)N)NC(=O)[C@H](Cc2c[nH]cn2)NC(=O)[C@@H](N)CSSC[C@@H](C(=O)O)NC(=O)[C@H](CCCNC(=N)N)NC(=O)[C@H](C(C)C)NC(=O)[C@H](Cc2c[nH]c3ccccc23)NC(=O)CNC(=O)[C@H]([C@@H](C)O)NC(=O)CNC1=O` [C5/D5.11, CHRVIGTGWVRC] (H-CHRVIGTGWVRC-OH; disulfide 1-12; N-terminus and C-terminus assumed) registered a solubility in data set [1] of 10 mM (≈ 13.8 mg/mL).

In data set [1], `CC[C@H](C)[C@H](NC(=O)[C@@H](NC(=O)[C@H](CCCNC(=N)N)NC(=O)[C@@H](N)CCC(=O)O)C(C)C)C(=O)NCC(=O)N[C@H](C(=O)NCC(=O)N[C@@H](Cc1c[nH]c2ccccc12)C(=O)N[C@H](C(=O)N[C@@H](CCCNC(=N)N)C(=O)O)C(C)C)[C@@H](C)O` [C5/D5.4, ERVIGTGWVR] (H-ERVIGTGWVR-OH; N-terminus and C-terminus assumed) displayed a solubility of 10 mM (≈ 11.7 mg/mL).

`CC(C)[C@@H]1NC(=O)[C@H](Cc2c[nH]c3ccccc23)NC(=O)CNC(=O)[C@H](Cc2c[nH]cn2)NC(=O)CNC(=O)[C@@H]2CCCN2C(=O)[C@H](C(C)C)NC(=O)[C@H](CCCNC(=N)N)NC(=O)[C@H](Cc2c[nH]cn2)NC(=O)[C@@H](N)CSSC[C@@H](C(=O)O)NC(=O)[C@H](CCCNC(=N)N)NC1=O` [C5/D5.12, CHRVPGHGWVRC] (H-CHRVPGHGWVRC-OH; disulfide 1-12; N-terminus and C-terminus assumed) returned a solubility in data set [1] of 1 mM (≈ 1.4 mg/mL).
